Assay in all cases: ADP-Glo kinase assay (Promega), % inhibition at […]
Common to all, as to format: biochemical
A general note: ADP-Glo first removes unused ATP, then detects ADP through luciferase.

Assay [1] has as its target EGFR (Homo sapiens, UniProt P00533).
In assay [2] the target is insulin-like growth factor 1 receptor (IGF1R) (Homo sapiens, UniProt P08069).
Assay [3] deals with T1, HER2 (Homo sapiens, UniProt P04626).
T1 construct: gene ERBB2
T1 sequence (P04626 23-1255): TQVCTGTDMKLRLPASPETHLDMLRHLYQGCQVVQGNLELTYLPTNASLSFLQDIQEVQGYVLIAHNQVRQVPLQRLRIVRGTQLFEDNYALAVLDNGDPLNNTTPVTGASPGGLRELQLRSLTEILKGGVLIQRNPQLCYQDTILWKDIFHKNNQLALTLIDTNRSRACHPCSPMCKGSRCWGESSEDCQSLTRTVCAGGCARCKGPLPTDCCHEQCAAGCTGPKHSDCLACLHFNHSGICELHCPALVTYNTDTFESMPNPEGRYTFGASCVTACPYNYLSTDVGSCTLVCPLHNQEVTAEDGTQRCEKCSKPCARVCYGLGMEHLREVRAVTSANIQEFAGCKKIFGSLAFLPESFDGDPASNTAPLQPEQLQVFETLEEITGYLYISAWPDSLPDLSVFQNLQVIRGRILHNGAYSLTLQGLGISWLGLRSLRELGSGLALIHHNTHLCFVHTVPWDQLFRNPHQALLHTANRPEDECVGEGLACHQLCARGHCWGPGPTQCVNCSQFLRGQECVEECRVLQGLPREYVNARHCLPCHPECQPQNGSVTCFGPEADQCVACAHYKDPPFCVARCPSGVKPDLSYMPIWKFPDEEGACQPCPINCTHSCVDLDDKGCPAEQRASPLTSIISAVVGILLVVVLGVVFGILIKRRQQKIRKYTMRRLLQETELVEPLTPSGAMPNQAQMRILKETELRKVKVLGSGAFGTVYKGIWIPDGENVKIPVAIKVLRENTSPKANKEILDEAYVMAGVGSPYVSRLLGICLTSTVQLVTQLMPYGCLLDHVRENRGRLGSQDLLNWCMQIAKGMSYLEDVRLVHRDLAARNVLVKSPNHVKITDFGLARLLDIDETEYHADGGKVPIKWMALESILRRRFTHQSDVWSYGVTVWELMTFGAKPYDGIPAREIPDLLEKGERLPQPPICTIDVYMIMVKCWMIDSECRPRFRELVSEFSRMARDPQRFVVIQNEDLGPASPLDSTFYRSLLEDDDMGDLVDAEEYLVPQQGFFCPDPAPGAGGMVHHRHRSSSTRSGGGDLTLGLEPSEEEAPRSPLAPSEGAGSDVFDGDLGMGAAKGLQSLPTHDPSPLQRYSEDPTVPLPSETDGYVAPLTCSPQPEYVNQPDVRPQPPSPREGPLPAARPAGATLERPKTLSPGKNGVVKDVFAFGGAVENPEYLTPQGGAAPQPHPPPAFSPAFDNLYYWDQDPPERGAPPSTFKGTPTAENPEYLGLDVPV

EGFR, sequence (P00533 25-1210): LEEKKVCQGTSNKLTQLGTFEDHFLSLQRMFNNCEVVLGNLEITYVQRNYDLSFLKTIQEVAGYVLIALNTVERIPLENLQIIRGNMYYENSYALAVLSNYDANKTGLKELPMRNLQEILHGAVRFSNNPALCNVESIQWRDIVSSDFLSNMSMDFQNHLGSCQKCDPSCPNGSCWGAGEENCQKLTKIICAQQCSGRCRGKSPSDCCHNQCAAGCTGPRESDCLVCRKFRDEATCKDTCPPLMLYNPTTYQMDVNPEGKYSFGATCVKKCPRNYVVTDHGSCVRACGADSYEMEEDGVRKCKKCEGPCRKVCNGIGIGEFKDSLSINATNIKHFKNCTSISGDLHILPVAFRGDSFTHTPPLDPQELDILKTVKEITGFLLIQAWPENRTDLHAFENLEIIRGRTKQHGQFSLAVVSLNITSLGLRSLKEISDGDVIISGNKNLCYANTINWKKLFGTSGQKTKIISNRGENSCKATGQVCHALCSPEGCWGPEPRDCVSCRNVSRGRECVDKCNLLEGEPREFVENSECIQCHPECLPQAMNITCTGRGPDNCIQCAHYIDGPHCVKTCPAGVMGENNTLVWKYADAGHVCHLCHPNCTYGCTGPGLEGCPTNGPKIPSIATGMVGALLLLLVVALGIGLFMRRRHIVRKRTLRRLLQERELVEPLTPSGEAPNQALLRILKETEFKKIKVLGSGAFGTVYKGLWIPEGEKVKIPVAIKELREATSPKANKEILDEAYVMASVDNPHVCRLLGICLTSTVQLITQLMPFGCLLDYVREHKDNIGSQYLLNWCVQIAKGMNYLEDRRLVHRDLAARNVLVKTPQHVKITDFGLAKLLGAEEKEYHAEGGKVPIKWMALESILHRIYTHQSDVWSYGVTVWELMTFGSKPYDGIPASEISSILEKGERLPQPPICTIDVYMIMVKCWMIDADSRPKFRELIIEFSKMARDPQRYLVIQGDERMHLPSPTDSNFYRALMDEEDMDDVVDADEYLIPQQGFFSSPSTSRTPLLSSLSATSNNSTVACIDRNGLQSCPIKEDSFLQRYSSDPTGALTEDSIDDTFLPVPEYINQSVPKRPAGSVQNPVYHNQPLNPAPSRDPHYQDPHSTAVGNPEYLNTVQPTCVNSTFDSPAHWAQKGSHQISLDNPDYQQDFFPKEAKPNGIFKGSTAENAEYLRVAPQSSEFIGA
insulin-like growth factor 1 receptor (IGF1R), sequence (P08069 31-736): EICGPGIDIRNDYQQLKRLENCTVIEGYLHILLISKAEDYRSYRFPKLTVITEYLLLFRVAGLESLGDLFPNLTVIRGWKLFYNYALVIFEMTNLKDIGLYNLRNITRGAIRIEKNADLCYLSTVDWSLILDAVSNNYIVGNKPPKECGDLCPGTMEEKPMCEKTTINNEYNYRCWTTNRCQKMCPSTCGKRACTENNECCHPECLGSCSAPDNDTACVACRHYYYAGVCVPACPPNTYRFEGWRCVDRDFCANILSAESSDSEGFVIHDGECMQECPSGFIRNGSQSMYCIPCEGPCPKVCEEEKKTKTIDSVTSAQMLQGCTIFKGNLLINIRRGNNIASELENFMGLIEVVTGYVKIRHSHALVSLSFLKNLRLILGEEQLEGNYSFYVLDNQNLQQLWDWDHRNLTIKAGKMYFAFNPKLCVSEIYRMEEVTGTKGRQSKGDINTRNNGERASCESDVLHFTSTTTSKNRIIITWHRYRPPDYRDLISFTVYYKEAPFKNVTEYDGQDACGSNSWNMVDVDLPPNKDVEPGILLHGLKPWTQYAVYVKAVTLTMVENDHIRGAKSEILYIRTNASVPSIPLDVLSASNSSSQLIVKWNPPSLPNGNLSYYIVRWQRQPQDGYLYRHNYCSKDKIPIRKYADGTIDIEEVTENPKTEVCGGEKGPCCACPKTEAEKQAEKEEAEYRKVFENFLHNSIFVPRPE
insulin-like growth factor 1 receptor (IGF1R), sequence (P08069 741-1367): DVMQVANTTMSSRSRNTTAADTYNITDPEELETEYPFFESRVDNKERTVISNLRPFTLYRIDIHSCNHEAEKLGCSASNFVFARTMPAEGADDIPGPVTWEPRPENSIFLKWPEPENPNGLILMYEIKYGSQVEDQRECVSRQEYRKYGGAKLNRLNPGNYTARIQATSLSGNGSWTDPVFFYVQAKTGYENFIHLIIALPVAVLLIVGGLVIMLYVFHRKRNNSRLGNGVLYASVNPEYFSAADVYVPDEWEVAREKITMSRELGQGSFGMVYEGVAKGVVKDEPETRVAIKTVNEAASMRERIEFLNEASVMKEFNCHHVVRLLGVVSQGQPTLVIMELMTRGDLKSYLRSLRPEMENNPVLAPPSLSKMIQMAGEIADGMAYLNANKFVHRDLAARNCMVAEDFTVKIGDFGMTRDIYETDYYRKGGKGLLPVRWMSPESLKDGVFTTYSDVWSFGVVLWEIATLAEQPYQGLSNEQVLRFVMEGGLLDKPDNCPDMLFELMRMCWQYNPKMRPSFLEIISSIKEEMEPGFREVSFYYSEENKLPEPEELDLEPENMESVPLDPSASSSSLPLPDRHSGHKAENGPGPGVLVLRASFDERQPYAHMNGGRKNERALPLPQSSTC

For orientation: inhibition means the change of the read-out against control, counted positive when it falls. On to `COc1ccccc1/C=C/c1nc(Nc2ccc3c(c2)OCO3)c2ccccc2n1` [IS20, N-(1,3-benzodioxol-5-yl)-2-[(E)-2-(2-methoxyphenyl)vinyl] quinazolin-4-amine], for which the results for the inhibition at 1 µM in assay [1], in assay [2] and in assay [3] were 25 to 30%, 40% and 25 to 30%, respectively.

The values above are taken from PMC12062220, “Unveiling the role of Ndrg1 gene on the oxidative stress induction behind the anticancer potential of styrylquinazoline derivatives” (Scientific Reports, 2025).
